{"source": "paper PMC9653995", "about": "“New Positive TRPC6 Modulator Penetrates Blood–Brain Barrier, Eliminates Synaptic Deficiency and Restores Memory Deficit in 5xFAD Mice” (International Journal of Molecular Sciences, 2022)", "origin": "cited, not measured here", "test_system": "TRPC3", "conditions": "cited from earlier work", "data": [{"smiles": "O=C(c1cc2c(s1)CCCCC2)N1CCC(n2c(=O)[nH]c3ccccc32)CC1", "note": "[GSK1702934A, reference compound]", "values": [{"measurement": "activation of TRPC3", "value": "activate TRPC3"}]}]}
